Consider five compounds from PubChem BioAssay (NCI).

Experiment in all cases: NCI-60 cell line screen, 48 h
For assay [1], the system named is 786-0 renal.
Assay [2] deals with COLO 205 colon.
Assay [3] has as its system DU-145 prostate.
The test system of assay [4] is HL-60(TB) leukemia.
For assay [5], the system named is HOP-62 NSCLC.
Assay [6] deals with HOP-92 NSCLC.
Assay [7] concerns HS 578T breast.
The subject of assay [8] is K-562 leukemia.
In assay [9] the test system is LOX IMVI melanoma.
The test system of assay [10] is M14 melanoma.
For assay [11], the system named is MCF7 breast.
Assay [12] relates to NCI-H23 lung.
For assay [13], the system named is NCI/ADR-RES ovarian.
For assay [14], the system named is RXF 393 renal.
In assay [15] the test system is SF-539 CNS.
The subject of assay [16] is SK-MEL-2 melanoma.
Assay [17] concerns SK-MEL-5 melanoma.
Assay [18] concerns SN12C renal.
The subject of assay [19] is SW-620 colon.
For assay [20], the system named is UACC-257 melanoma.

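Method: 48-hour compound exposure of cells in 96-well plates, five concentrations, linear interpolation of endpoints. TGI denotes the concentration required for complete inhibition of growth.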

On to `CCc1ccc(Nc2cc(=O)[nH]c(SCc3ccccc3)n2)cc1`, for which the TGI in assay [1], in [2], in assay [3], in assay [4], in [5] and in assay [6] was greater than 100 µM in each case. For the same compound, the TGI in assay [7], in [8], in [9], in assay [10], in assay [11] and in [12] was greater than 100 µM throughout. Further, the TGI in assay [13], in assay [14], in [15], in [16], in assay [17] and in [18] was greater than 100 µM throughout. Also, the TGI in assay [19] and in [20] was greater than 100 µM each time.
Regarding `CC(=O)OCC1OC(n2c(C)c(N=Nc3ccccc3)c(C)c(C#N)c2=S)C(OC(C)=O)C(OC(C)=O)C1OC(C)=O` (stereo not given), the TGI in assay [1] is 22.7 µM; in assay [2] it was greater than 100 µM; in assay [3], greater than 100 µM; in assay [4], greater than 100 µM; in assay [5], 34.5 µM; in assay [6] it was 28 µM. Further, the TGI was 44.8 µM in assay [7]; greater than 100 µM in assay [8]; greater than 100 µM in assay [9]; greater than 100 µM in assay [10]; greater than 100 µM in assay [11]; greater than 100 µM in assay [12]. For the same compound, the TGI in [13] is greater than 100 µM; in assay [14], 32.4 µM; in assay [15], greater than 100 µM; in [16], 62.2 µM; in [17] it was greater than 100 µM; in assay [18], greater than 100 µM. In addition, the TGI in assay [19] and in assay [20] was greater than 100 µM in each case.
On to `CCOC(=O)C(Cc1c2ccccc2cc2ccccc12)(NC(C)=O)C(=O)OCC`, for which the TGI is greater than 100 µM in assay [1]; greater than 100 µM in [2]; greater than 100 µM in assay [3]; greater than 100 µM in assay [4]; greater than 100 µM in assay [5]; 83.1 µM in [6]. The TGI in assay [7], in assay [8], in assay [9], in assay [10], in assay [11] and in assay [12] was greater than 100 µM throughout. The TGI in assay [13], in [14], in assay [15], in assay [16], in [17] and in assay [18] was greater than 100 µM throughout. The TGI in assay [19] and in assay [20] was greater than 100 µM in each case.
Turning to `O=S(=O)(N=S(c1ccc(Cl)cc1)c1ccc(Cl)cc1)c1ccccc1`, the TGI in assay [1], in assay [2], in [3], in [4], in assay [5] and in assay [6] was greater than 100 µM in each case. Further, the TGI in [7], in [8], in assay [9], in assay [10], in assay [11] and in assay [12] was greater than 100 µM throughout. Moreover, the TGI in assay [13], in [14], in assay [15], in [16], in assay [17] and in assay [18] was greater than 100 µM throughout. The TGI in assay [19] and in [20] was greater than 100 µM in each case.
As to `CCOC(=O)C(NC(=O)c1ccccc1)(Nc1ccc(S(=O)(=O)Nc2nc(C)cc(C)n2)cc1)C(F)(F)F` (stereo not given), the TGI in assay [1], in assay [2], in assay [3], in assay [4], in [5] and in [6] was greater than 100 µM in each case. Moreover, the TGI in assay [7], in [8], in [9], in assay [10], in assay [11] and in assay [12] was greater than 100 µM each time. Further, the TGI in [13], in [14], in [15], in assay [16], in assay [17] and in [18] was greater than 100 µM each time. Further, the TGI in [19] and in assay [20] was greater than 100 µM each time.
